Source: patent US20110086924A1, “Method of manufacturing an eutectic crystalline sugar alcohol” (B Food Science Co., Ltd., priority 2005, published 2011)

Assay: Dissolving time in water (rate of dissolution)
Type: physicochemical
Details: 10 g in 100 ml water at 20° C.; particle size 150 μm or more but less than 350 μm
Excerpt: Powder containing an eutectic crystalline sorbitol/maltitol prepared by the same way as that of Example 11 was classified into a part (crude particle part) having a particle size of 350 μm or more but less than 2 mm and a part (powdery product of 150 to 350 μm in particle size) having a particle size of 150 μm or more but less than 350 μm.
In addition, as a control, powdery sorbitol (SORBITOL FP, manufactured by NIKKEN FINE CHEMICALS CO., LTD.), powdery maltitol (AMARTY MR, manufactured by TOWA KASEI CO., LTD.), and a mixture of powdery sorbitol and powdery maltitol (1:1), which were classified so as to have a particle size of 150 μm or more but less than 350 μm (powdery product of 150 to 350 μm in particle size), were prepared.
Ten grams of each of them was poured into 100 ml of water at 20° C. and then subjected to the measurement of dissolving time. Consequently, the crude part of the powder containing an eutectic crystalline sorbitol/maltitol dissolved within 50 seconds, the powdery product of the powder containing an eutectic crystalline sorbitol/maltitol having a particle size of 150 to 350 μm dissolved within 18 seconds, the powdery sorbitol dissolved within 35 seconds, the powdery maltitol dissolved within 54 seconds, and the mixture of the powdery sorbitol and the powdery maltitol dissolved within 46 seconds.

Row | Compound | dissolving time
1 | OC[C@@H](O)[C@@H](O[C@H]1O[C@H](CO)[C@@H](O)[C@H](O)[C@H]1O)[C@H](O)[C@@H](O)CO [powdery maltitol, maltitol] | ≤ 54 s
2 | OC[C@@H](O)[C@@H](O)[C@H](O)[C@@H](O)CO [powdery sorbitol, sorbitol] | ≤ 35 s
